Data from US6441049B2, “Method of treating neurodegenerative disorders via inhibition of amyloid beta peptide binding” (Ortho-McNeil Pharmaceutical, Inc., priority 1998, dated 2002).
Like-named read-outs stand apart in the source and are kept apart here. Bridge positions count the residues as written; N and C are the ends.

Columns and labels:
[1] = tested on: Aβ1-42 mediated inhibition of ACh release in rat cortical synaptosomes; assay: Amelioration of the Aβ1-42 mediated inhibition of ACh release in rat cortical synaptosomes; assay type: cell-based
[2] = target: 206-216 stretch of the human α7 nAChR (Homo sapiens, UniProt P36544); details: for % α7 nAChR 206-216 Binding: inhibitors 1 uM to 10 uM
Procedure: A 2-5 ug quantity of the 11 amino acid peptide comprised of the 206-216 stretch of the α7 nAChR (N-Ac, C(O)NH2) are added to a 96-well microtiter plate in 50 mL 10 mM HEPES, pH 7.4, or any buffer 50 ul. ^125I-β-amyloid1-40 (2000 Ci/mmol, 50 pM) was added to the wells in the presence and absence of inhibitors (1 uM to 10 uM) dissolved in 1 uL of 30% or 100% DMSO. Unbound ligands were removed and bound radioactivity was measured using a Microbeta liquid scintillation counter.

[3] = tested on: acetylcholine release from guinea pig hippocampus synaptosomes; assay: K+-evoked 3H-acetylcholine release from synaptosomes, effect of Aβs; assay type: cell-based; details: for IC50: read-out: ACh Release (IC50)
Procedure: Synaptosomes from guinea pig hippocampus were incubated with 0.1 μM ^3H-choline and then subjected to repeated washes to remove unincorporated ^3H-choline. The synaptosomes were treated with 65 mM K^+ for 30 seconds to elicit 3H-acetylcholine release.

[4] = target: T1, alpha-7 nAChRs (Homo sapiens); assay: 125I-Aβ1-40 binding to alpha-7 nAChRs (SK-N-MC cell membranes) on wheat germ agglutinin SPA beads; details: read-out: IC50, inhibition of 125I-Aβ1-40 binding to SK-N-MC cells
T1 construct: alpha-7 nAChR contained SK-N-MC cell membranes were immobilized; endogenous in cells; host or cells: SK-N-MC cell membranes
Procedure: Alpha-7 nAChRs were immobilized on wheat germ agglutinin coupled yittrium SPA beads and allowed to incubate with ^125I-Aβ1-40 in the presence of various concentrations of cold Aβ1-40 or Aβ1-42.

[5] = target: T2, Aβ aggregation (Homo sapiens, UniProt P05067); assay: Aβ aggregation assay on Synthaloid plates with labelled Aβ1-40; assay type: biochemical
T2 construct: 100 nM of fluo-Aβ1-40 in 100 μl of each well of the 96-well Synthaloid plate; purchased Amersham Pharmacia Biotech (125I-Aβ1-40); Advanced Bioconcepts (fluo-Aβ1-40)

[6] = target: T2, Aβ aggregation; assay: as above; assay type: biochemical; remark: listed apart in the source
Procedure: Aβs are known to form aggregates leading to the formation of amyloid plaques that are characteristic of Alzheimer's disease. […] We have validated this aggregation assay using both ^125I-Aβ1-40 and fluo-Aβ1-40 in a buffer containing 50 mM HEPES, pH 7.4, 0.1% BSA, 10% FCS and protease inhibitors. About 500 pM of ^125I-Aβ1-40 or 100 nM of fluo-Aβ1-40 in 100 μl of each well of the 96-well Synthaloid plate was allowed to incubate for 2.5 hr at room temperature in the presence or absence of inhibitors. At the end of the incubation, unbound protein in the wells was removed by three washes using the above buffer. The amount of bound protein which represented Aβ aggregation was measured either by scintillation counting or fluorescence measurements.

[7] = target: α7 subtype nAChR homomers (Homo sapiens, UniProt P36544); details: cited from earlier work
Sequence of α7 subtype nAChR homomers (P36544 23-502): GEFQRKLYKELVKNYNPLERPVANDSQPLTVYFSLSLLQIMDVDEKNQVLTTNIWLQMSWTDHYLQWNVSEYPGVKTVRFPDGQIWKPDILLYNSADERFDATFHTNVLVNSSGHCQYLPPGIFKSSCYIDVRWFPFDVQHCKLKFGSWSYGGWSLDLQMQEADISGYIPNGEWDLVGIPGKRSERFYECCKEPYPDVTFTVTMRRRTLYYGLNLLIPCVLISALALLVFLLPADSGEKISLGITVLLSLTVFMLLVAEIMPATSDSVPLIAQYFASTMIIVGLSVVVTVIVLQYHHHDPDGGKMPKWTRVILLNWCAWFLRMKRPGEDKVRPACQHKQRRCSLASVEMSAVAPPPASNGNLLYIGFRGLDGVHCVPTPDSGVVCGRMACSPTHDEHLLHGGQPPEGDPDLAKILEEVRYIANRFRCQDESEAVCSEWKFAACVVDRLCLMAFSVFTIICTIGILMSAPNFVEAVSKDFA

T2 sequence (P05067 672-711 limits assumed): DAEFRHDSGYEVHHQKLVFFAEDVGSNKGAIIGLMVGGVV
T1 sequence (P05067 672-711): as the sequence (P05067 672-711 limits assumed) above

## Ac-GIPGKRSERFYECCK-NH2 (cysteine pairing not given here) [human alpha-7 nAChR200-214, peptide stretch of the human alpha-7 nAChR]
[1]; at 1 μM
  Amelioration of the Aβ1-42 Meditated Inhibition of ACh Release in Rat Cortical Synaptosomes (%): 71% at 1 μM
[1]; at 10 μM
  Amelioration of the Aβ1-42 Meditated Inhibition of ACh Release in Rat Cortical Synaptosomes (%): 79% at 10 μM

## Ac-SERFYECCKEP-NH2 [human alpha-7 nAChR206-216 Ac-SERFYECCKEP-NH2] (cysteine pairing not given here)
[2]
  Inhibition of ligand binding to the 206-216 peptide: inhibited
[1]; at 1 μM
  Amelioration of the Aβ1-42 Meditated Inhibition of ACh Release in Rat Cortical Synaptosomes (%): 77% at 1 μM
[1]; at 10 μM
  Amelioration of the Aβ1-42 Meditated Inhibition of ACh Release in Rat Cortical Synaptosomes (%): 81% at 10 μM

## SERFYECCKEP [206-216 peptide without Ac and NH2 end groups]
[1]; at 1 μM
  Amelioration of the Aβ1-42 Meditated Inhibition of ACh Release in Rat Cortical Synaptosomes (%): 10% at 1 μM
[1]; at 10 μM
  Amelioration of the Aβ1-42 Meditated Inhibition of ACh Release in Rat Cortical Synaptosomes (%): 22% at 10 μM

## Ac-SERFYECCKEP-NH2 [human alpha-7 nAChR206-216 oxidized (cyclic) CC: Ac-SERFYECC] (disulfide 7-8 (inferred)) [206-216 peptide with oxidized (cyclic) CC]
[1]; at 1 μM
  Amelioration of the Aβ1-42 Meditated Inhibition of ACh Release in Rat Cortical Synaptosomes (%): 82% at 1 μM
[1]; at 10 μM
  Amelioration of the Aβ1-42 Meditated Inhibition of ACh Release in Rat Cortical Synaptosomes (%): 84% at 10 μM

## CCCN(CCC)[C@@H]1Cc2c(O)ccc(O)c2C[C@H]1C (racemic) [Compound 9, 5,8-Dihydroxy-trans-2-di(N-propylamino)-3-methyl-1,2,3,4-tetrahydronaphthalene]
[3]; 10 nM compound and 100 pM of either Aβ1-40 and Aβ1-42 prior to K+ stimulation
  Effect on acetylcholine release of Aβ after pretreatment with compound: no effect on acetylcholine release
[3]
  % ACh Release at 10 μM: 94%
[3]; Cavia porcellus
  IC50: 100 nM
[2]
  Inhibition of ligand binding to the 206-216 peptide: inhibited
[2]; […]
  % α7 nAChR 206-216 Binding: 94%
[4]
  IC50: 0.3 nM
[5]
  Effect of prolonged incubation on amyloid aggregates (time course): resulted in disaggregation
[6]; 10 μM, read-out: % Inh Agg. (conc μM)
  inhibition at 10 µM: > 90%
[6]; Synthaloid plate, 2.5 hr, room temperature, read-out: IC50, inhibition of Aβ aggregation
  IC50: 10 nM

## CCCN(CCC)C1Cc2c(OC(=O)C(C)(C)C)ccc(O)c2CC1C (stereo not shown) [Compound 51]
[3]
  % ACh Release at 10 μM: 54%
[2]; 125I-β-amyloid1-40 50 pM
  % α7 nAChR 206-216 Binding: 0%
[6]; 10 μM
  % Inh Agg. (conc μM): 30-50 (10) %

## Ac-YECC-NH2 [human alpha-7 nAChR210-213]
[1]; at 1 μM
  Amelioration of the Aβ1-42 Meditated Inhibition of ACh Release in Rat Cortical Synaptosomes (%): 59% at 1 μM
[1]; at 10 μM
  Amelioration of the Aβ1-42 Meditated Inhibition of ACh Release in Rat Cortical Synaptosomes (%): 72% at 10 μM

## CCCN(CCC)C1Cc2c(O)ccc(O)c2CC1C (stereo not shown) [Compound 16]
[3]
  IC50: 10000 nM
[2]; […]
  % α7 nAChR 206-216 Binding: 44%
[6]; 10 μM
  % Inh Agg. (conc μM): 50-90 (10) %

## CCCN(CCC)C1Cc2c(OCC=C(C)C)ccc(O)c2CC1C (racemic) [Compound 44]
[3]
  % ACh Release at 10 μM: 0%
[2]; 125I-β-amyloid1-40 50 pM
  % α7 nAChR 206-216 Binding: 23%
[6]; 10 μM
  % Inh Agg. (conc μM): 50-90 (10) %

## α-bungarotoxin [reference compound]
[2]
  Inhibition of ligand binding to the 206-216 peptide: inhibited
[7]
  Kd: 0.65 to 1.7 nM

## 5,8-bis(Diphenylphosphinoyl)-3-methyl-1,2,3,4-tetrahydronaphthalene [Compound 59]
[3]
  % ACh Release at 10 μM: 25%
[2]; […]
  % α7 nAChR 206-216 Binding: 72%
[6]; 10 μM
  % Inh Agg. (conc μM): <30 (10) %
